Source: patent publication US20110081315A1, “NOVEL MACROCYCLIC INHIBITORS OF HEPATITIS C VIRUS REPLICATION” (INTERMUNE, INC., priority 2009, published 2011)
pEC50, pIC50: −log10 of the molar value. Read-outs that look alike come from different tables or passages of the source.

What was measured:
[1] = molecular target: NS3/NS4 complexes (Hepatitis C virus genotype 1a, UniProt P27958); test: NS3/NS4 inhibition assay (IC50); assay type: biochemical; conditions: NS3/NS4 activity; 23° C., 25 μM NS4A peptide
Sequence of NS3/NS4 complexes (P27958 1027-1657, one chain of several): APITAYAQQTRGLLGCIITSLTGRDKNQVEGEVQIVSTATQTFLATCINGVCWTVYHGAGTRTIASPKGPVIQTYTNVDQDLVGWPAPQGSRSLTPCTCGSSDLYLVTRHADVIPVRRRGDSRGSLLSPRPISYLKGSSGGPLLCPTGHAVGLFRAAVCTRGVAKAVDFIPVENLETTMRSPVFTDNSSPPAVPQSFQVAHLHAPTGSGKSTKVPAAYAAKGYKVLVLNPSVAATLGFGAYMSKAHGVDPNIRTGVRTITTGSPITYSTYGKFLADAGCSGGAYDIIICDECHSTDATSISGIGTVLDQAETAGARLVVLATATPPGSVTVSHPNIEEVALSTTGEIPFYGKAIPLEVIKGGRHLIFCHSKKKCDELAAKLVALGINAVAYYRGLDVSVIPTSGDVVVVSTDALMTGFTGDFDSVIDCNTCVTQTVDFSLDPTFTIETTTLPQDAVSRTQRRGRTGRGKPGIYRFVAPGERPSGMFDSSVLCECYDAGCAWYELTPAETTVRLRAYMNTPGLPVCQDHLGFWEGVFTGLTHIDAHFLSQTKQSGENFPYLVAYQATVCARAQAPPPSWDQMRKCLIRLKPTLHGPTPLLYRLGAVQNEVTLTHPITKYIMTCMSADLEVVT
Outline: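 NS3/NS4 protease complexes were formed and compound inhibitory concentrations (IC50) measured at ambient temperature (23° C.) in 50 mM Tris-HCl, pH 7.5, with 15% glycerol, 0.6 mM LDAO, 25 μM NS4A peptide and 10 mM DTT. Replicon EC50 values come from a standard HCV replicon cell assay.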

[2] = tested on: hepatitis C replicon; test: hepatitis C replicon EC50 assay; assay type: cell-based; conditions: Hepatitis C virus
Outline: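 Read-outs are IC50 for inhibition of the NS3/NS4 complex and EC50 in an HCV replicon system. Biochemical runs use 23° C. and a 50 mM Tris-HCl (pH 7.5) buffer with 15% glycerol, 10 mM DTT, 0.6 mM LDAO and 25 μM NS4A peptide.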

[3] = hepatitis C replicon, read-out: EC50

SMILES	pIC50 [1]	pEC50 [2, 3]	pEC50 [2]
CN(C)S(=O)(=O)NC(=O)[C@@]12C[C@H]1/C=C\CCCCC[C@H](NC(=O)OC(C)(C)C)C(=O)N1C[C@H](Oc3ccc4c(ccn4C)c3)C[C@H]1C(=O)N2 [Compound 701]	> 8.00	< 7.00	–
COc1ccc2c(O[C@@H]3C[C@H]4C(=O)N[C@]5(C(=O)NS(=O)(=O)C6(C)CC6)C[C@H]5/C=C\CCCCC[C@H](Nc5cccc(C(=O)N6CCOC(C)C6)c5)C(=O)N4C3)cc(-c3nc(C(C)C)cs3)nc2c1C (stereo partly drawn) [Compound 109]	> 8.00	> 8.00	–
CCNC(=O)c1cccc2c1nc(O[C@@H]1C[C@H]3C(=O)N[C@]4(C(=O)NS(=O)(=O)C5(C)CC5)C[C@H]4/C=C\CCCCC[C@H](Nc4ccccc4)C(=O)N3C1)n2C(C)C [Compound 271]	> 8.00	7.00 to 8.00	–
CC(C)c1cccc2nc(O[C@@H]3C[C@H]4C(=O)N[C@]5(C(=O)NS(=O)(=O)N(C)C)C[C@H]5/C=C\CCCCC[C@H](NC(=O)OC(C)(C)C)C(=O)N4C3)n(C(C)C)c12 [Compound 290]	> 8.00	7.00 to 8.00	–
CC(C)n1c(O[C@@H]2C[C@H]3C(=O)N[C@]4(C(=O)NS(=O)(=O)C5(C)CC5)C[C@H]4/C=C\CCCCC[C@H](Nc4cccc(C(C)(C)C)c4)C(=O)N3C2)nc2ccccc21 [Compound 200]	> 8.00	> 8.00	–
CC(C)n1c(O[C@@H]2C[C@H]3C(=O)N[C@]4(C(=O)NS(=O)(=O)C5CC5)C[C@H]4/C=C\CCCCC[C@H](NC(=O)OC(C)(C)C)C(=O)N3C2)nc2c(-c3nc(C(C)(C)C)cs3)cccc21 [Compound 220]	> 8.00	> 8.00	–
CC(C)n1c(O[C@@H]2C[C@H]3C(=O)N[C@]4(C(=O)NS(=O)(=O)C5(C)CC5)C[C@H]4/C=C\CCCCC[C@H](Nc4ccc(C(F)(F)F)cc4)C(=O)N3C2)nc2cncnc21 [Compound 501]	> 8.00	< 7.00	–
CC(C)n1c(O[C@@H]2C[C@H]3C(=O)N[C@]4(C(=O)NS(=O)(=O)C5(C)CC5)C[C@H]4/C=C\CCCCC[C@H](NC(=O)OC(C)(C)C)C(=O)N3C2)nc2c(-c3nc(-c4ccc(-c5ccccc5)cc4)cs3)cccc21 [Compound 1716]	> 8.00	7.00 to 8.00	–
CNC(=O)c1cccc2c1nc(O[C@@H]1C[C@H]3C(=O)N[C@]4(C(=O)NS(=O)(=O)C5(C)CC5)C[C@H]4/C=C\CCCCC[C@H](Nc4ccccc4)C(=O)N3C1)n2C(C)C [Compound 269]	> 8.00	7.00 to 8.00	–
CC(C)n1c(O[C@@H]2C[C@H]3C(=O)N[C@]4(C(=O)NS(=O)(=O)C5(C)CC5)C[C@H]4/C=C\CCCCC[C@H](NC(=O)OC(C)(C)C)C(=O)N3C2)nc2c(-c3nc(Cc4ccccc4Cl)cs3)cccc21 [Compound 1727]	> 8.00	> 8.00	–
CCc1nc2ccccc2nc1O[C@@H]1C[C@H]2C(=O)N[C@]3(C(=O)NS(=O)(=O)N(C)C)C[C@H]3/C=C\CCCCC[C@H](NC(=O)OC(C)(C)C)C(=O)N2C1 [Compound 302]	> 8.00	> 8.00	–
COc1ccc2c(O[C@@H]3C[C@H]4C(=O)N[C@]5(C(=O)NS(=O)(=O)C6(C)CC6)C[C@H]5/C=C\CCCCC[C@H](Nc5cccc(C(=O)N6CCN(C(=O)C7CC7)CC6)c5)C(=O)N4C3)cc(-c3nc(C(C)C)cs3)nc2c1C [Compound 119]	> 8.00	> 8.00	–
CN(C)S(=O)(=O)NC(=O)[C@@]12C[C@H]1/C=C\CCCCC[C@H](NC(=O)OC(C)(C)C)C(=O)N1C[C@H](Oc3nc4ccccc4nc3C(C)(C)C)C[C@H]1C(=O)N2 [Compound 304]	> 8.00	7.00 to 8.00	–
CCCn1c(O[C@@H]2C[C@H]3C(=O)N[C@]4(C(=O)NS(=O)(=O)N(C)C)C[C@H]4/C=C\CCCCC[C@H](NC(=O)OC(C)(C)C)C(=O)N3C2)nc2ccccc21 [Compound 1223]	> 8.00	> 8.00	–
CC(C)n1c(O[C@@H]2C[C@H]3C(=O)N[C@]4(C(=O)NS(=O)(=O)C5(C)CC5)C[C@H]4/C=C\CCCCC[C@H](Nc4ccccc4)C(=O)N3C2)nc2c(C(=O)Nc3ccccc3)cccc21 [Compound 273]	> 8.00	7.00 to 8.00	–
CC(C)n1c(O[C@@H]2C[C@H]3C(=O)N[C@]4(C(=O)NS(=O)(=O)C5(C)CC5)C[C@H]4/C=C\CCCCC[C@H](NC(=O)OC(C)(C)C)C(=O)N3C2)nc2c(-c3nc(Cc4cccc(F)c4)cs3)cccc21 [Compound 1725]	> 8.00	> 8.00	–
CC(C)n1c(O[C@@H]2C[C@H]3C(=O)N[C@]4(C(=O)NS(=O)(=O)N(C)C)C[C@H]4/C=C\CCCCC[C@H](NC(=O)OC(C)(C)C)C(=O)N3C2)nc2cnccc21 [Compound 209]	> 8.00	7.00 to 8.00	–

SMILES	pIC50 [1]	pEC50 [2, 3]	pEC50 [2]
CC(C)n1c(O[C@@H]2C[C@H]3C(=O)N[C@]4(C(=O)NS(=O)(=O)C5(C)CC5)C[C@H]4/C=C\CCCCC[C@H](NC(=O)OC(C)(C)C)C(=O)N3C2)nc2c(-c3nc(Cc4ccccc4)cs3)cccc21 [Compound 1767]	> 8.00	> 8.00	–
CC(C)c1ccc2c(c1)nc(O[C@@H]1C[C@H]3C(=O)N[C@]4(C(=O)NS(=O)(=O)C5(C)CC5)C[C@H]4/C=C\CCCCC[C@H](Nc4ccccc4)C(=O)N3C1)n2C(C)C [Compound 202]	> 8.00	< 7.00	–
CC(C)c1cccc2c1nc(O[C@@H]1C[C@H]3C(=O)N[C@]4(C(=O)NS(=O)(=O)C5(C)CC5)C[C@H]4/C=C\CCCCC[C@H](Nc4ccccc4)C(=O)N3C1)n2C(C)C [Compound 201]	> 8.00	7.00 to 8.00	–
CC(C)n1c(O[C@@H]2C[C@H]3C(=O)N[C@]4(C(=O)NS(=O)(=O)N(C)C)C[C@H]4/C=C\CCCCC[C@H](NC(=O)OC(C)(C)C)C(=O)N3C2)nc2c(Cl)cccc21 [Compound 264]	> 8.00	> 8.00	–
CC1(S(=O)(=O)NC(=O)[C@@]23C[C@H]2/C=C\CCCCC[C@H](Nc2ccccc2)C(=O)N2C[C@H](n4nc5ccccc5n4)C[C@H]2C(=O)N3)CC1 [Compound 1501]	7.00 to 8.00	< 7.00	–
Cc1sc(-c2cccc3c2nc(O[C@@H]2C[C@H]4C(=O)N[C@]5(C(=O)NS(=O)(=O)N(C)C)C[C@H]5/C=C\CCCCC[C@H](NC(=O)OC(C)(C)C)C(=O)N4C2)n3C(C)C)nc1C(C)(C)C [Compound 1207]	> 8.00	7.00 to 8.00	–
CC(C)n1c(O[C@@H]2C[C@H]3C(=O)N[C@]4(C(=O)NS(=O)(=O)C5(C)CC5)C[C@H]4/C=C\CCCCC[C@H](Nc4cc(F)cc(C(F)(F)F)c4)C(=O)N3C2)nc2cncnc21 [Compound 503]	> 8.00	7.00 to 8.00	–
CC(C)n1c(O[C@@H]2C[C@H]3C(=O)N[C@]4(C(=O)NS(=O)(=O)C5(C)CC5)C[C@H]4/C=C\CCCCC[C@H](NC(=O)OC(C)(C)C)C(=O)N3C2)nc2c(-c3nc(Cc4ccc(F)c(F)c4)cs3)cccc21 [Compound 1721]	> 8.00	> 8.00	–
CC(C)n1c(O[C@@H]2C[C@H]3C(=O)N[C@]4(C(=O)NS(=O)(=O)N(C)C)C[C@H]4/C=C\CCCCC[C@H](NC(=O)OC(C)(C)C)C(=O)N3C2)nc2c(-c3csc(N4CCOCC4)n3)cccc21 [Compound 1741]	> 8.00	> 8.00	–
CC(C)n1c(O[C@@H]2C[C@H]3C(=O)N[C@]4(C(=O)NS(=O)(=O)N(C)C)C[C@H]4/C=C\CCCCC[C@H](NC(=O)OC(C)(C)C)C(=O)N3C2)nc2c(NC(=O)NCCc3ccccc3)cccc21 [Compound 1424]	> 8.00	–	> 8.00
Cc1oc(-c2cccc3c2nc(O[C@@H]2C[C@H]4C(=O)N[C@]5(C(=O)NS(=O)(=O)N(C)C)C[C@H]5/C=C\CCCCC[C@H](NC(=O)OC(C)(C)C)C(=O)N4C2)n3C(C)C)nc1Cc1ccccc1 [Compound 1214]	> 8.00	> 8.00	–
CC(C)n1c(O[C@@H]2C[C@H]3C(=O)N[C@]4(C(=O)NS(=O)(=O)C5(C)CC5)C[C@H]4/C=C\CCCCC[C@H](NC(=O)OC(C)(C)C)C(=O)N3C2)nc2c(-c3nc(CC4CCCCC4)cs3)cccc21 [Compound 1773]	> 8.00	> 8.00	–
Cc1ccc(-c2csc(-c3cccc4c3nc(O[C@@H]3C[C@H]5C(=O)N[C@]6(C(=O)NS(=O)(=O)C7(C)CC7)C[C@H]6/C=C\CCCCC[C@H](NC(=O)OC(C)(C)C)C(=O)N5C3)n4C(C)C)n2)cc1 [Compound 1709]	> 8.00	7.00 to 8.00	–
CC(C)c1csc(-c2cccc3c2nc(O[C@@H]2C[C@H]4C(=O)N[C@]5(C(=O)NS(=O)(=O)C6(C)CC6)C[C@H]5/C=C\CCCCC[C@H](NC(=O)OC(C)(C)C)C(=O)N4C2)n3C(C)C)n1 [Compound 1403]	> 8.00	> 8.00	–
CC(C)n1c(O[C@@H]2C[C@H]3C(=O)N[C@]4(C(=O)NS(=O)(=O)N(C)C)C[C@H]4/C=C\CCCCC[C@H](NC(=O)OC(C)(C)C)C(=O)N3C2)nc2cc(-c3ccccc3)ccc21 [Compound 262]	> 8.00	7.00 to 8.00	–
CC(C)n1c(O[C@@H]2C[C@H]3C(=O)N[C@]4(C(=O)NS(=O)(=O)C5(C)CC5)C[C@H]4/C=C\CCCCC[C@H](Nc4ccccc4)C(=O)N3C2)nc2c(C(F)(F)F)cccc21 [Compound 204]	> 8.00	7.00 to 8.00	–
